Data set [1] in a line: Induction of cellularization in human primary myotube assessed as beta-actin level at 5 uM in presence of reversine incubated for 72 hrs by Western blot analysis (reference value: 1.095). In kind it is tissue-based. A general note: A western blot detects proteins with antibodies after separation by electrophoresis.
Data set [2] is described as follows: Induction of cellularization in human primary myotube assessed as alpha-tubulin level at 5 uM in presence of reversine incubated for 72 hrs by Western blot analysis (reference value: 0.674). It is filed as functional.
A short description of data set [3]: Induction of cellularization in human primary myotube assessed as beta-actin level at 20 uM incubated for 72 hrs by Western blot analysis (reference value: 1.095). It is filed as tissue-based.
Data set [4] in a line: Induction of cellularization in human primary myotube assessed as alpha-tubulin level at 20 uM incubated for 72 hrs by Western blot analysis (reference value: 0.674). It is filed as functional.
Data set [5] is described as follows: Induction of cellularization in human primary myotube assessed as alpha-tubulin level at 100 nM in presence of BIO incubated for 72 hrs by Western blot analysis (reference value: 0.674). It is filed as functional.
Data set [6] in a line: Induction of cellularization in human primary myotube assessed as beta-actin level at 100 nM in presence of BIO incubated for 72 hrs by Western blot analysis (reference value: 1.095). It is filed as tissue-based. Particulars: 0.1 µM.
The test system of data set [7] is MDA-MB-231. As to the kind of experiment: Cytotoxicity against human MDA-MB-231 cells assessed as reduction in cell viability incubated for 72 hrs by MTT assay. In kind it is functional, cell-based. To be noted: MDA-MB-231, 72 h. Background: Tetrazolium assays rely on reduction of a dye to a coloured formazan, in cell work by metabolically active cells.
Data set [8] has as its system HCT-116. As to the kind of experiment: Cytotoxicity against human HCT-116 cells assessed as reduction in cell viability incubated for 72 hrs by MTT assay. It is filed as functional, cell-based. To be noted: HCT-116, 72 h.
The test system of data set [9] is C2C12 (Mus musculus). Description: Induction of cellularization in mouse C2C12 myotube assessed as reduction in cell proliferation at 1 uM incubated for 72 hrs by EdU staining based inverted fluorescence microscopy.
A short description of data set [10]: Toxicity in zebra fish embryo assessed as reduction in cell viability at 40 uM. Particulars: zebrafish. On the set-up: species or system Danio rerio.
Data set [11] relates to C2C12. As to the kind of experiment: Osteogenic activity in mouse C2C12 cells assessed as increase in mineralization at 1 uM preincubated for 72 hrs followed by incubation with osteogenic factor for 10 days. It is filed as functional, cell-based. To be noted: time 13.0 day.
Data set [12] relates to NIH3T3. As to the kind of experiment: Adipogenic activity in mouse NIH/3T3 cells assessed as increase in insulin-stimulated glucose uptake at 1 uM preincubated for 72 hrs followed by incubation with adipogenic factors for 10 days by […] probe based fluorescence assay. Particulars: time 13.0 day. In kind it is functional, cell-based.
Data set [13] addresses Glycogen synthase kinase-3 beta (Homo sapiens) (UniProt P49841). As to the kind of experiment: Inhibition of GSK3beta (unknown origin) using PASVPPSPSLSRHSSPHQpSED as substrate preincubated for 10 mins followed by substrate addition and measured after 30 mins by TR-FRET assay. To be noted: time 40.0 mins. On the technique in general: TR-FRET usually uses a lanthanide donor and a delayed reading to cut background.

Data set [14] in a line: Induction of cellularization in human primary myotube assessed as beta-actin level at 1 uM incubated for 72 hrs by Western blot analysis (reference value: 1.095). It is filed as tissue-based.
Data set [15] has as its target T1, Aurora kinase A (Homo sapiens) (UniProt O14965).
T1 sequence (whole entry): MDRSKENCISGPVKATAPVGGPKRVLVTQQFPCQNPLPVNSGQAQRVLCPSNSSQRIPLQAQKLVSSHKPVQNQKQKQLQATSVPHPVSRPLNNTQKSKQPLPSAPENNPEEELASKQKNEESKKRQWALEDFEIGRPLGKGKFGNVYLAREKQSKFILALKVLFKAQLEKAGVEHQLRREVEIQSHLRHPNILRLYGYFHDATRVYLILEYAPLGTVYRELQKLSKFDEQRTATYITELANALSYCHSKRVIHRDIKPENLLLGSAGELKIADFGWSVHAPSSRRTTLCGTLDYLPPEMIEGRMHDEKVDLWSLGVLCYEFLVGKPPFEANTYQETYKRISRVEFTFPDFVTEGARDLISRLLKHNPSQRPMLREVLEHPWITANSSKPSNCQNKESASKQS
As to the kind of experiment: Inhibition of recombinant human N-terminal His-tagged Aurora A expressed in Sf21 cells using peptide substrate at 1 uM by TR-FRET assay relative to control.

The test system of data set [16] is MDA-MB-231. As to the kind of experiment: Induction of apoptosis in human MDA-MB-231 cells assessed as cleaved caspase-7 at 500 nM incubated for 72 hrs by Western blot assay (reference value: 0.349). In kind it is functional.
The subject of data set [17] is HCT-116. Description: Induction of apoptosis in human HCT-116 cells assessed as cleaved caspase-7 at 500 nM incubated for 72 hrs by Western blot assay (reference value: 0). It is filed as functional.
Data set [18] addresses T1, Aurora kinase A (Homo sapiens). Description: Inhibition of recombinant human N-terminal His-tagged Aurora A expressed in Sf21 cells using peptide substrate by TR-FRET assay.
For data set [19], the system named is C2C12. Description: Induction of cell cycle arrest in mouse C2C12 cells assessed as G1 phase at 1 uM incubated for 72 hrs by propidium iodide based flow cytometry (reference value: 61.2 %). In kind it is functional.
Data set [20] deals with C2C12. Description: Osteogenic activity in mouse C2C12 cells assessed as increase in plasticity at 1 uM preincubated for 72 hrs followed by incubation with osteogenic factor for 10 days by Alizarin red staining based light microscopy. In kind it is functional, cell-based. To be noted: time 13.0 day.
The test system of data set [21] is MDA-MB-231. Description: Induction of apoptosis in human MDA-MB-231 cells assessed as cleaved PARP at 500 nM incubated for 72 hrs by Western blot assay (reference value: 0.519). It is filed as functional.
Data set [22] relates to MDA-MB-231. Description: Antimetastatic activity in human MDA-MB-231 cells xenografted in zebra fish at 10 uM incubated for 96 hrs by fluorescence microscopy. It is filed as functional, cell-based.
For data set [23], the system named is NIH3T3. As to the kind of experiment: Downregulation of alpha-SMA in mouse NIH-3T3 cells at 1 uM incubated for 72 hrs by Western blotting assay. It is filed as functional, cell-based.
Data set [24] deals with C2C12 (Mus musculus). As to the kind of experiment: Induction of cellularization in mouse C2C12 myotube at 1 uM incubated for 72 hrs by microscopic analysis.
The test system of data set [25] is HCT-116. As to the kind of experiment: Induction of apoptosis in human HCT-116 cells assessed as cleaved PARP at 500 nM incubated for 72 hrs by Western blot assay (reference value: 1.127). In kind it is functional.
In data set [26] the test system is C2C12. Description: Induction of cell cycle arrest in mouse C2C12 cells assessed as G2/M phase at 1 uM incubated for 72 hrs by propidium iodide based flow cytometry (reference value: 19.3 %). In kind it is functional.
Data set [27] in a line: Toxicity in zebra fish embryo assessed as reduction in swimming ability at 20 to 40 uM. On the set-up: species or system Danio rerio. Particulars: zebrafish, dose 20-40 µM.
Data set [28] has as its system C2C12. Description: Osteogenic activity in mouse C2C12 cells assessed as increase in osteoponin-expression at 1 uM preincubated for 72 hrs followed by incubation with osteogenic factor for 10 days by RT-PCR analysis. To be noted: time 13.0 day. In kind it is functional, cell-based.
The test system of data set [29] is C2C12. As to the kind of experiment: Osteogenic activity in mouse C2C12 cells assessed as increase in alkaline phosphatase at 1 uM preincubated for 72 hrs followed by incubation with osteogenic factor for 10 days by fluorescence based assay. Particulars: time 13.0 day. In kind it is functional, cell-based.
Data set [30] is described as follows: Toxicity in zebra fish embryo assessed as skeletal abnormalities at 20 to 40 uM. The arrangement: species or system Danio rerio. To be noted: zebrafish, dose 20-40 µM.
Data set [31] deals with MDA-MB-231. Description: Inhibition of cell invasion in human MDA-MB-231 cells at 50 nM incubated for 72 hrs by crystal violet staining based assay. In kind it is functional.
In data set [32] the target is Glycogen synthase kinase-3 beta (Homo sapiens) (UniProt P49841). As to the kind of experiment: Inhibition of GSK3beta (unknown origin) using PASVPPSPSLSRHSSPHQpSED as substrate at 1 uM preincubated for 10 mins followed by substrate addition and measured after 30 mins by TR-FRET assay relative to control.
For data set [33], the system named is C2C12. As to the kind of experiment: Induction of cell cycle arrest in mouse C2C12 cells assessed as S phase at 1 uM incubated for 72 hrs by propidium iodide based flow cytometry (reference value: 10.5 %). It is filed as functional.
Data set [34] deals with NIH3T3. As to the kind of experiment: Adipogenic activity in mouse NIH/3T3 cells assessed as […] in epinephrine-stimulated fatty acid release at 1 uM preincubated for 72 hrs followed by incubation with adipogenic factors for 10 days by colorimetric assay. In kind it is functional, cell-based.
Data set [35] can be described thus: Induction of cellularization in human primary myotube assessed as alpha-tubulin level at 1 uM incubated for 72 hrs by Western blot analysis (reference value: 0.674). In kind it is functional.
Data set [36] relates to NIH3T3. As to the kind of experiment: Adipogenic activity in mouse NIH/3T3 cells assessed as increase in lipid accumulation at 1 uM preincubated for 72 hrs followed by incubation with adipogenic factors for 10 days by Oil red O staining based light microscopy. It is filed as functional, cell-based. To be noted: time 13.0 day.
Data set [37] has as its system NIH3T3. As to the kind of experiment: Downregulation of alpha-SMA in mouse NIH/3T3 cells at 1 uM incubated for 72 hrs by immunofluorescence microscopy. It is filed as functional, cell-based.

Activity calls are given as the source filed them. The rule behind the calls is not given here.

One may read the IC50 as the concentration needed to halve the response being measured. The inhibition is how much of the control response was suppressed.

Glycogen synthase kinase-3 beta (Homo sapiens), sequence (P49841 whole entry, looked up): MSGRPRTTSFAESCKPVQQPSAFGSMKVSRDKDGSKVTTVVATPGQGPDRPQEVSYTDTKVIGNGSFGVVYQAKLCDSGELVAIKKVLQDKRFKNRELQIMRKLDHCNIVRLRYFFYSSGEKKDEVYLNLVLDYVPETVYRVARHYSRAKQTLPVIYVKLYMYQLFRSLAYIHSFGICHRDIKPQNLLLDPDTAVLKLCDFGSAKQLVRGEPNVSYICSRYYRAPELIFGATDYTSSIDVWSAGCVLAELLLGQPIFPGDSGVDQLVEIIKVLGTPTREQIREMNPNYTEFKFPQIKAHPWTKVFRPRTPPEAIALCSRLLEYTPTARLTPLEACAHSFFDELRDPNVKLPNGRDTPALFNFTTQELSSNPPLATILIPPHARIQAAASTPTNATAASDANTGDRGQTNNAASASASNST

Consider `O=C1Nc2cc(Br)ccc2/C1=C1/Nc2ccccc2/C1=N\O` [6BIO], for which the “fold change (FC)” value came to 1.388 in data set [1] and 0.758 in [2].
For the compound `COc1ccc(CNc2nc(NCc3ccc(OC)cc3)c3ncn(C(C)C)c3n2)cc1` [MYOSEVERIN], the “fold change (FC)” value worked out at 1.139 in data set [3] and 0 in [4].
Take `COC(=O)[C@H]1[C@H]2C[C@@H]3c4[nH]c5cc(OC)ccc5c4CCN3C[C@H]2C[C@@H](OC(=O)c2cc(OC)c(OC)c(OC)c2)[C@@H]1OC` [RESERPINE]: the entries for the “fold change (FC)” value in data set [5] and in [6] were 0.758 and 1.388, respectively.
Regarding `Cl.NCCO/N=C1/C(=C2/C(=O)Nc3ccc([N+](=O)[O-])cc32)Nc2ccc(O)cc21`, the IC50 in the data set with MDA-MB-231 [7] turned out to be 738 nM; in the data set on HCT-116 [8], 302 nM. Moreover, the result with C2C12 (Mus musculus) [9], in the data set on C2C12 [11], in the data set on NIH3T3 [12], in the data set with C2C12 [20], in the data set with MDA-MB-231 [22] and in the data set on NIH3T3 [23] was Active. Further, the outcome with C2C12 (Mus musculus) [24], with C2C12 [28], in the data set on C2C12 [29], in the data set on NIH3T3 [34], with NIH3T3 [36] and in the data set on NIH3T3 [37] was Active. The Activity entry is “Toxic” in data set [10]; 33.6% in the data set with C2C12 [19]; 35% with C2C12 [26]; “Toxic” in data set [27]; “Toxic” in data set [30]; 18% in the data set with C2C12 [33]. Besides, the inhibition result was “Dose-dependent effect” in [13], 47.7% in [15], “Dose-dependent effect” in data set [18] and 99.8% in data set [32]. Moreover, the “fold change (FC)” value is on record as 1.451 in [14]; 0.674 with MDA-MB-231 [16]; 1.115 in the data set with HCT-116 [17]; 1.962 in the data set with MDA-MB-231 [21]; 1.129 with HCT-116 [25]; 1.064 in data set [35]. For the same compound, in the data set on MDA-MB-231 [31], the inhibition result was “Active”.

Source of the values: ChEMBL document CHEMBL4665660, “A novel indirubin derivative that increases somatic cell plasticity and inhibits tumorigenicity” (Bioorg Med Chem, 2019).
